# Experimental data reported in ChEMBL document CHEMBL1153846, “QSAR studies for diarylpyrimidines against HIV-1 reverse transcriptase wild-type and mutant strains” (Eur J Med Chem, 2009).
# Columns and labels:
# [1] = tested on: Human immunodeficiency virus type 1 reverse transcriptase (Human immunodeficiency virus 1), Q72547 [Y181C]; assay: Inhibition of HIV1 reverse transcriptase Y181C mutant
# [2] = tested on: Human immunodeficiency virus type 1 reverse transcriptase (Human immunodeficiency virus 1), Q72547 [[…]]; assay: Inhibition of HIV1 reverse transcriptase Y188L mutant
# [3] = tested on: Human immunodeficiency virus type 1 reverse transcriptase (Human immunodeficiency virus 1), Q72547 [L100I]; assay: Inhibition of HIV1 reverse transcriptase L100I mutant
# [4] = target: Human immunodeficiency virus type 1 reverse transcriptase (Human immunodeficiency virus 1) (UniProt Q72547); assay: Inhibition of HIV1 wild type reverse transcriptase
# [5] = Hydrophobic index, Log P of the compound; type: physicochemical; details: octanol/water
SMILES,log(1/C) [1],log(1/C) [2],log(1/C) [3],log(1/C) [4],logP ([5]; read-out: logP),logP [5]
Cc1cc(C#N)cc(C)c1Sc1ccnc(Nc2ccc(C#N)cc2)n1,7.17,7.36,6.76,8.24,2.06,
Cc1cc(C)c(Nc2nc(Nc3ccc(C#N)cc3)ncc2C#N)c(C)c1,7.4,7.11,7.2,9,1.49,
Cc1cc(C)c(Nc2ccnc(Nc3ccc(C#N)cc3)n2)c(C)c1 [DAPIVIRINE],8.12,7.32,7.74,9,1.64,
Cc1cc(C#N)cc(C)c1Oc1nc(Nc2ccc(C#N)cc2)nc(N)c1Br [ETRAVIRINE],8.15,8.34,8.48,8.85,1.54,
Cc1cc(Br)c(Nc2ccnc(Nc3ccc(C#N)cc3)n2)c(Br)c1,8.47,,8.52,9.15,1.44,
Cc1cc(Cl)cc(C)c1Nc1ccnc(Nc2ccc(C#N)cc2)n1,7.72,6.94,6.49,8.68,1.27,
C#Cc1cc(C)c(Oc2ccnc(Nc3ccc(C#N)cc3)n2)c(C)c1,6.77,7.3,6.73,8.26,1.53,
Cc1cnc(Nc2ccc(C#N)cc2)nc1Nc1c(C)cc(C#N)cc1C,7.92,7.8,7.8,9.1,1.49,
Cc1cc(C#N)cc(C)c1Nc1nc(Nc2ccc(C#N)cc2)ncc1C#N,7.12,8.07,7.04,9.3,1.06,
Cc1cc(C)c(Oc2ccnc(Nc3ccc(C#N)cc3)n2)c(C)c1,7.42,7.26,7.66,8.54,1.82,
Cc1cccc(C)c1Nc1ccnc(Nc2ccc(C#N)cc2)n1,7.21,6.59,6.67,9.15,1.49,
N#Cc1ccc(Nc2nccc(Nc3c(Br)cc(F)cc3Br)n2)cc1,7.82,7.19,7.82,9.22,0.68,
C#Cc1cnc(Nc2ccc(C#N)cc2)nc1Nc1c(C)cc(C)cc1C,,,,,1.63,
Cc1cc(Br)cc(C)c1Nc1ccnc(Nc2ccc(C#N)cc2)n1,7.77,7.16,7.12,8.64,1.54,
Cc1cc(C)c(Nc2nc(Nc3ccc(C#N)cc3)ncc2-c2ccccc2)c(C)c1,,,,7.62,3.14,
Cc1cc(C#N)cc(C)c1Nc1nc(Nc2ccc(C#N)cc2)ncc1Cl,7.85,8.33,8.28,8.92,1.11,
Cc1cc(C)c(Nc2nc(Nc3ccc(C#N)cc3)ncc2Cl)c(C)c1,7.49,7.47,7.77,8.57,1.72,

SMILES,log(1/C) [1],log(1/C) [2],log(1/C) [3],log(1/C) [4],logP ([5]; read-out: logP),logP [5]
Cc1cc(Br)cc(C)c1Oc1ccnc(Nc2ccc(C#N)cc2)n1,7.23,7.1,6.95,8.54,1.72,
Cc1cc(C#N)cc(C)c1Oc1nc(Nc2ccc(C#N)cc2)ncc1Cl,7.47,8.32,8.12,8.85,1.29,
Cc1cc(C#N)cc(C)c1Nc1nc(Nc2ccc(C#N)cc2)nc(NO)c1Br,7.92,,8.92,8.4,2.18,
Cc1cc(C#N)cc(C)c1Oc1nc(Nc2ccc(C#N)cc2)ncc1[N+](=O)[O-],6.52,6.11,6.92,7.74,,0.7
Cc1cc(C#N)cc(C)c1Nc1nc(Nc2ccc(C#N)cc2)nc(CO)c1Br,8.22,8.22,8.7,8.4,0.81,
Cc1cc(C#N)cc(C)c1Oc1ccnc(Nc2ccc(C#N)cc2)n1,7.43,7.72,7.14,8.96,1.39,
Cc1cc(C)c(Oc2nc(Nc3ccc(C#N)cc3)ncc2Br)c(C)c1,7.44,7.57,7.96,8.26,1.82,
C=Cc1cnc(Nc2ccc(C#N)cc2)nc1Nc1c(C)cc(C)cc1C,7.44,7.54,7.46,8.6,2.1,
Cc1cc(C)c(Nc2nc(Nc3ccc(C#N)cc3)ncc2C)c(C)c1,7.92,7.74,7.92,8.77,1.92,
Cc1cc(C#N)cc(C)c1Oc1nc(Nc2ccc(C#N)cc2)ncc1N,8.03,8.24,7.8,9,-0.21,
Cc1cc(Cl)cc(Cl)c1Nc1ccnc(Nc2ccc(C#N)cc2)n1,7.74,7.07,7.22,9,0.89,
Cc1cc(C)c(Sc2ccnc(Nc3ccc(C#N)cc3)n2)c(C)c1,7.6,7.7,7.27,8.44,2.16,
Cc1cc(C#N)cc(C)c1Nc1nc(Nc2ccc(C#N)cc2)ncc1Br,8.02,8.48,8.15,9.4,1.39,
CC(=O)Nc1cnc(Nc2ccc(C#N)cc2)nc1Oc1c(C)cc(C#N)cc1C,,,,,-0.38,
N#Cc1ccc(Nc2nccc(Nc3c(Cl)cc(Cl)cc3Cl)n2)cc1,8,7,7.85,9.15,0.51,
Cc1cc(C#N)cc(C)c1Nc1ccnc(Nc2ccc(C#N)cc2)n1,8.15,8.11,7.47,9.4,1.21,
